Test results taken from the NIST ThermoML archive (doi:10.1021/je034087q).

Experiment: xn = mol fraction of the nth substance listed

CCCCC [pentane] + O=C=O
Details | mass density [kg/m3]
312.35 K, 7770 kPa, Fluid (supercritical or subcritical phases), x2 = 0.96 | 475
312.35 K, 7780 kPa, Fluid (supercritical or subcritical phases), x2 = 0.96 | 479
312.35 K, 7790 kPa, Fluid (supercritical or subcritical phases), x2 = 0.96 | 482
312.35 K, 7800 kPa, Fluid (supercritical or subcritical phases), x2 = 0.96 | 488
312.35 K, 7810 kPa, Fluid (supercritical or subcritical phases), x2 = 0.96 | 491
312.35 K, 7840 kPa, Fluid (supercritical or subcritical phases), x2 = 0.96 | 501
312.35 K, 7870 kPa, Fluid (supercritical or subcritical phases), x2 = 0.96 | 511
312.35 K, 7890 kPa, Fluid (supercritical or subcritical phases), x2 = 0.96 | 522
312.35 K, 7920 kPa, Fluid (supercritical or subcritical phases), x2 = 0.96 | 532
312.35 K, 7970 kPa, Fluid (supercritical or subcritical phases), x2 = 0.96 | 544
312.35 K, 8010 kPa, Fluid (supercritical or subcritical phases), x2 = 0.96 | 556
312.35 K, 8070 kPa, Fluid (supercritical or subcritical phases), x2 = 0.96 | 568
312.35 K, 8150 kPa, Fluid (supercritical or subcritical phases), x2 = 0.96 | 581
312.35 K, 8230 kPa, Fluid (supercritical or subcritical phases), x2 = 0.96 | 594
312.35 K, 8360 kPa, Fluid (supercritical or subcritical phases), x2 = 0.96 | 608
312.35 K, 8530 kPa, Fluid (supercritical or subcritical phases), x2 = 0.96 | 624
312.35 K, 8740 kPa, Fluid (supercritical or subcritical phases), x2 = 0.96 | 639
312.35 K, 9020 kPa, Fluid (supercritical or subcritical phases), x2 = 0.96 | 656
312.35 K, 9400 kPa, Fluid (supercritical or subcritical phases), x2 = 0.96 | 674
312.35 K, 9600 kPa, Fluid (supercritical or subcritical phases), x2 = 0.96 | 686
315.55 K, 7940 kPa, Fluid (supercritical or subcritical phases), x2 = 0.947 | 466
315.55 K, 7960 kPa, Fluid (supercritical or subcritical phases), x2 = 0.947 | 472
315.55 K, 7970 kPa, Fluid (supercritical or subcritical phases), x2 = 0.947 | 475
315.55 K, 8010 kPa, Fluid (supercritical or subcritical phases), x2 = 0.947 | 484
315.55 K, 8040 kPa, Fluid (supercritical or subcritical phases), x2 = 0.947 | 492
315.55 K, 8070 kPa, Fluid (supercritical or subcritical phases), x2 = 0.947 | 502
315.55 K, 8110 kPa, Fluid (supercritical or subcritical phases), x2 = 0.947 | 512
315.55 K, 8150 kPa, Fluid (supercritical or subcritical phases), x2 = 0.947 | 522
315.55 K, 8200 kPa, Fluid (supercritical or subcritical phases), x2 = 0.947 | 532
315.55 K, 8250 kPa, Fluid (supercritical or subcritical phases), x2 = 0.947 | 543
315.55 K, 8320 kPa, Fluid (supercritical or subcritical phases), x2 = 0.947 | 555
315.55 K, 8390 kPa, Fluid (supercritical or subcritical phases), x2 = 0.947 | 566
315.55 K, 8490 kPa, Fluid (supercritical or subcritical phases), x2 = 0.947 | 578
315.55 K, 8610 kPa, Fluid (supercritical or subcritical phases), x2 = 0.947 | 592
315.55 K, 8760 kPa, Fluid (supercritical or subcritical phases), x2 = 0.947 | 605
315.55 K, 8970 kPa, Fluid (supercritical or subcritical phases), x2 = 0.947 | 620
315.55 K, 9200 kPa, Fluid (supercritical or subcritical phases), x2 = 0.947 | 635
315.55 K, 9520 kPa, Fluid (supercritical or subcritical phases), x2 = 0.947 | 650
315.55 K, 9940 kPa, Fluid (supercritical or subcritical phases), x2 = 0.947 | 666
315.55 K, 10200 kPa, Fluid (supercritical or subcritical phases), x2 = 0.947 | 676
315.55 K, 10490 kPa, Fluid (supercritical or subcritical phases), x2 = 0.947 | 684
315.55 K, 10840 kPa, Fluid (supercritical or subcritical phases), x2 = 0.947 | 695
315.55 K, 11480 kPa, Fluid (supercritical or subcritical phases), x2 = 0.947 | 711
318.15 K, 7980 kPa, Fluid (supercritical or subcritical phases), x2 = 0.901 | 590
318.15 K, 8070 kPa, Fluid (supercritical or subcritical phases), x2 = 0.901 | 594
318.15 K, 8170 kPa, Fluid (supercritical or subcritical phases), x2 = 0.901 | 600
318.15 K, 8280 kPa, Fluid (supercritical or subcritical phases), x2 = 0.901 | 606
318.15 K, 8380 kPa, Fluid (supercritical or subcritical phases), x2 = 0.901 | 613
318.15 K, 8520 kPa, Fluid (supercritical or subcritical phases), x2 = 0.901 | 619
318.15 K, 8660 kPa, Fluid (supercritical or subcritical phases), x2 = 0.901 | 625
318.15 K, 8810 kPa, Fluid (supercritical or subcritical phases), x2 = 0.901 | 631
318.15 K, 8980 kPa, Fluid (supercritical or subcritical phases), x2 = 0.901 | 638
318.15 K, 9180 kPa, Fluid (supercritical or subcritical phases), x2 = 0.901 | 644
318.15 K, 9400 kPa, Fluid (supercritical or subcritical phases), x2 = 0.901 | 651
318.15 K, 9440 kPa, Fluid (supercritical or subcritical phases), x2 = 0.901 | 654
318.15 K, 9550 kPa, Fluid (supercritical or subcritical phases), x2 = 0.901 | 656
318.15 K, 9720 kPa, Fluid (supercritical or subcritical phases), x2 = 0.901 | 661
318.15 K, 9910 kPa, Fluid (supercritical or subcritical phases), x2 = 0.901 | 666
318.15 K, 10010 kPa, Fluid (supercritical or subcritical phases), x2 = 0.901 | 669
318.15 K, 10130 kPa, Fluid (supercritical or subcritical phases), x2 = 0.901 | 670
318.15 K, 10260 kPa, Fluid (supercritical or subcritical phases), x2 = 0.901 | 674
318.15 K, 10370 kPa, Fluid (supercritical or subcritical phases), x2 = 0.901 | 677
318.15 K, 10560 kPa, Fluid (supercritical or subcritical phases), x2 = 0.901 | 680
318.15 K, 10680 kPa, Fluid (supercritical or subcritical phases), x2 = 0.901 | 683
318.15 K, 10880 kPa, Fluid (supercritical or subcritical phases), x2 = 0.901 | 685
318.15 K, 11070 kPa, Fluid (supercritical or subcritical phases), x2 = 0.901 | 689
318.15 K, 11290 kPa, Fluid (supercritical or subcritical phases), x2 = 0.901 | 694
318.15 K, 11490 kPa, Fluid (supercritical or subcritical phases), x2 = 0.901 | 697
318.15 K, 11650 kPa, Fluid (supercritical or subcritical phases), x2 = 0.901 | 698
318.15 K, 11890 kPa, Fluid (supercritical or subcritical phases), x2 = 0.901 | 702
318.15 K, 12110 kPa, Fluid (supercritical or subcritical phases), x2 = 0.901 | 705
318.15 K, 12380 kPa, Fluid (supercritical or subcritical phases), x2 = 0.901 | 710
318.15 K, 12600 kPa, Fluid (supercritical or subcritical phases), x2 = 0.901 | 713
318.15 K, 12940 kPa, Fluid (supercritical or subcritical phases), x2 = 0.901 | 716
318.15 K, 13280 kPa, Fluid (supercritical or subcritical phases), x2 = 0.901 | 722
318.15 K, 13690 kPa, Fluid (supercritical or subcritical phases), x2 = 0.901 | 727
318.15 K, 13870 kPa, Fluid (supercritical or subcritical phases), x2 = 0.901 | 728
318.15 K, 14050 kPa, Fluid (supercritical or subcritical phases), x2 = 0.901 | 732
318.15 K, 14410 kPa, Fluid (supercritical or subcritical phases), x2 = 0.901 | 734
318.15 K, 14620 kPa, Fluid (supercritical or subcritical phases), x2 = 0.901 | 736
318.15 K, 14900 kPa, Fluid (supercritical or subcritical phases), x2 = 0.901 | 738
318.15 K, Liquid, Other PVT measurement, x2 = 0.901 | 585
323.15 K, 2500 kPa, Fluid (supercritical or subcritical phases), x2 = 0.214 | 607
